Experimental data: publication PMC8141582, “Synergistic Effect of Statins and Abiraterone Acetate on the Growth Inhibition of Neuroblastoma via Targeting Androgen Receptor” (Frontiers in Oncology, 2021)
Read-outs that look alike come from different tables or passages of the source.

Columns and labels:
10A cells = assay: MTT cell viability assay, 10A; type: cell-based; settings: Homo sapiens, normal cell line, 72 h
Method: (§1) Statins dissolved in DMSO and AA dissolved in ethanol. After 72 h treatment, the medium was added 0.5 mg/ml MTT reagent and incubated at 37°C for 4 h. Subsequently, the supernatant was aspirated, and cells were lysed in 150 µl DMSO, then shaken 10 min at 37°C. The optical density (OD) was measured at 570 and 630 nm using a plate reader.

HUVEC cells = assay: MTT cell viability assay, HUVEC; type: cell-based; settings: Homo sapiens, normal cell line, 72 h
Method: as §1

N2a cells = assay: Wound healing assay, N2a; type: cell-based, mouse; settings: 1.5 μM simvastatin, 48 h
Method: N2a, SH-SY5Y, and SK-N-BE (2) cells were cultured in six-well plates (5 × 10^5cells/well) and incubated till they reached 90–100% confluence. The cells were then maintained in phenol red-free DMEM/DMEM-F12 with 2.5%FBS, in order to minimize the cell proliferation. A sterile 20 µl tip was used to create scratch wounds of the same width. The plates were then washed twice with phosphate-buffered saline (PBS) to remove the detached cells. Photos were taken at 0, 24, and 48 h, and the area covered by the cells enumerated the closure of the wounds. Each experiment was performed in triplicate.

SH-SY5Y xenografts = assay: SH-SY5Y tumor xenograft study; type: in vivo, BALB/c nude mice; settings: Sim 20 mg/kg, oral daily
Description: Four weeks old BALB/c nude mice of both sexes were purchased from Vital River Laboratory Animal Technology Co., Ltd. (Beijing, China) and maintained under specific pathogen-free conditions. Male mice were castrated 5 days before cell inoculation. […] Then, all the mice were divided randomly into four groups: control group (Placebo, n = 7), simvastatin group (Sim, n = 6), abiraterone acetate group (AA, n = 6), and combination group (Com, n = 6) including three male mice in each group. […] AA 150 mg/kg/day; combined simvastatin 10 mg/kg/day with AA 75 mg/kg/day. Tumor was harvested after 10 days of dosing, then fixed half of a tumor in 4% buffered formaldehyde for IHC and the other half was stored −80°C for RT-PCR and Western Blots analysis.

U87MG = test system: U87MG; set-up: method as in Supplement [1]; key: Positive: Simvastatin alone inhibited the progression of cancer; Negative: Simvastatin alone could not inhibit the progression of cancer; settings: Glioma, 2.5 mg/kg/day, s.c.; ref Supplement [1]; cited from earlier work
GL-26 cells = test system: GL-26 cells; set-up: method as in Supplement [2]; key: Positive: Simvastatin alone inhibited the progression of cancer; Negative: Simvastatin alone could not inhibit the progression of cancer; settings: Human glioblastoma multiforme, 1.0 mg/kg/day or 10.0 mg/kg/day, oral; ref Supplement [2]; cited from earlier work
[1] = test system: TSC2-null cells from the primary tumors; set-up: method as in Supplement [3]; key: Positive: Simvastatin alone inhibited the progression of cancer; Negative: Simvastatin alone could not inhibit the progression of cancer; settings: Pulmonary Lymphangioleiomyomatosis, 100.0 mg/kg/day, oral; ref Supplement [3]; cited from earlier work
[2] = test system: HLMC cells from the primary patients; set-up: method as in Supplement [4]; key: Positive: Simvastatin alone inhibited the progression of cancer; Negative: Simvastatin alone could not inhibit the progression of cancer; settings: Lung Carcinoma, 50.0 mg/kg/day, oral; ref Supplement [4]; cited from earlier work
A549 cells = test system: A549 cells; set-up: method as in Supplement [5]; key: Positive: Simvastatin alone inhibited the progression of cancer; Negative: Simvastatin alone could not inhibit the progression of cancer; settings: Lung Adenocarcinoma, 10.0 mg/kg/day, i.v; ref Supplement [5]; cited from earlier work
HepG2 cells = test system: HepG2 cells; set-up: method as in Supplement [7]; key: Positive: Simvastatin alone inhibited the progression of cancer; Negative: Simvastatin alone could not inhibit the progression of cancer; settings: Hepatocellular Carcinoma, 40.0 mg/kg/day, i.p.; ref Supplement [7]; cited from earlier work
SW 480 cells = test system: SW 480 cells; set-up: method as in Supplement [10]; key: Positive: Simvastatin alone inhibited the progression of cancer; Negative: Simvastatin alone could not inhibit the progression of cancer; settings: Colorectal Cancer, 6.0 mg/kg/day, oral; ref Supplement [10]; cited from earlier work
HCT116 or HT29 cells = test system: HCT116 or HT29 cells; set-up: method as in Supplement [11]; key: Positive: Simvastatin alone inhibited the progression of cancer; Negative: Simvastatin alone could not inhibit the progression of cancer; settings: Colorectal Cancer, 50.0 mg/kg/day, oral; ref Supplement [11]; cited from earlier work
A498 cells = test system: A498 cells; set-up: method as in Supplement [14]; key: Positive: Simvastatin alone inhibited the progression of cancer; Negative: Simvastatin alone could not inhibit the progression of cancer; settings: Renal Cancer, 5.0 mg/kg/day, oral; ref Supplement [14]; cited from earlier work
22RV1 cells = test system: 22RV1 cells; set-up: key to Results (simvastatin alone): Positive: Simvastatin alone inhibited the progression of cancer; Negative: Simvastatin alone could not inhibit the progression of cancer; settings: Prostate Cancer, 25.0 mg/kg/day, i.p.; ref Supplement [15]; cited from earlier work
LAPC-4 cells = test system: LAPC-4 cells; set-up: method as in Supplement [16]; key: Positive: Simvastatin alone inhibited the progression of cancer; Negative: Simvastatin alone could not inhibit the progression of cancer; settings: Prostate Cancer, 11.0 mg/kg/day, s.c.; ref Supplement [16]; cited from earlier work
MDA-MB-231 cells = test system: MDA-MB-231 cells; set-up: key: Positive: Simvastatin alone inhibited the progression of cancer; Negative: Simvastatin alone could not inhibit the progression of cancer; settings: Breast Cancer, cited from earlier work
K562 cells = test system: K562 cells; set-up: key: Positive: Simvastatin alone inhibited the progression of cancer; Negative: Simvastatin alone could not inhibit the progression of cancer; settings: Chronic Myelogenous Leukemia, i.p., cited from earlier work

CCC(C)(C)C(=O)O[C@H]1C[C@@H](C)C=C2C=C[C@H](C)[C@H](CC[C@@H]3C[C@@H](O)CC(=O)O3)[C@H]21 [Simvastatin]
IC50 (10A cells): 26.7 µM
IC50 (HUVEC cells): 14.6 µM
migration vs control group (N2a cells): significantly higher
tumor growth (SH-SY5Y xenografts): tumor growth delay
Results (simvastatin alone) (U87MG): Positive
Results (simvastatin alone) (GL-26 cells): Negative
Results (simvastatin alone) [1]: Positive
Results (simvastatin alone) [2]: Positive
Results (simvastatin alone) (A549 cells): Positive
Results (simvastatin alone) (HepG2 cells): Positive
Results (simvastatin alone) (SW 480 cells): Positive
Results (simvastatin alone) (HCT116 or HT29 cells): Positive
Results (simvastatin alone) (A498 cells): Positive
Results (simvastatin alone) (22RV1 cells): Positive
Results (simvastatin alone) (LAPC-4 cells): Negative
Results (simvastatin alone) (MDA-MB-231 cells; 5.0 mg/kg/day, i.v., ref Supplement [23]): Positive
Results (simvastatin alone) (MDA-MB-231 cells; 5.0 mg/kg/day, route unknown, ref Supplement [21]): Positive
Results (simvastatin alone) (MDA-MB-231 cells; 10.0 mg/kg/day, oral, ref Supplement [20]): Positive
Results (simvastatin alone) (MDA-MB-231 cells; 200.0 mg/kg/day, oral, ref Supplement [22]): Positive
Results (simvastatin alone) (K562 cells; 1.3 mg/kg/day or 2.0 mg/kg/day, ref Supplement [26]): Positive
Results (simvastatin alone) (K562 cells; 7.1 mg/kg/day or 14.3 mg/kg/day, ref Supplement [27]): Positive
